System: tau protein
Experiment: Tau protein in vitro degradation assay (Western blot, Tau-13 antibody)
Assay type: cell-based, human
Details: SK-N-SH cells; 72 hours of incubation; tested at 300 nM, 100 nM, 33 nM and 11 nM; Western blot, Tau-13 antibody
How it was run: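 SK-N-SH cells, seeded ≥18 h beforehand, were incubated 72 h with tau PROTACs at 1000, 300 and 100 nM or at 300, 100, 33 and 11 nM. Lysates in protease-inhibitor buffer were resolved by SDS-PAGE; tau quantified by Western blot with Tau-13 antibody recognising all human tau forms.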

Row | SMILES | Degradation activity* (highest amount of degradation observed at any dosage; tau protein remaining) | Degradation activity (tau protein remaining; highest amount of degradation observed at any dosage)
1 | Cn1c2ccncc2c2ccc(-c3ccc(O[C@H]4C[C@H](Oc5ccc(C#CCOC6CN(c7ccc8c(c7)C(=O)N(C7CCC(=O)NC7=O)C8=O)C6)nc5)C4)nc3)cc21 (some centres unmarked) [Compound 111, 2-(2,6-dioxopiperidin-3-yl)-5-(3-((3-(5-((1r,3r)-3-((5-(5-methyl-5H-pyrido[4,3-b]indol-7-yl)pyridin-2-yl)oxy)cyclobutoxy)pyridin-2-yl)prop-2-yn-1-yl)oxy)azetidin-1-yl)isoindoline-1,3-dione] | C (>80% tau protein remaining after 72 hours of incubation with the test compound) | 
2 | O=C1CCC(N2C(=O)c3ccc(OCC#Cc4ccc(O[C@H]5C[C@H](Oc6ccc(-c7ccc8c(c7)[nH]c7ccncc78)cn6)C5)cn4)cc3C2=O)C(=O)N1 (some centres unmarked) [Compound 73, 5-((3-(5-((1r,3r)-3-((5-(5H-pyrido[4,3-b]indol-7-yl)pyridin-2-yl)oxy)cyclobutoxy)pyridin-2-yl)prop-2-yn-1-yl)oxy)-2-(2,6-dioxopiperidin-3-yl)isoindoline-1,3-dione] | A (≤50% tau protein remaining after 72 hours of incubation with the test compound) | 
3 | O=C1CCC(N2C(=O)c3ccc(OCC#Cc4ccc(O[C@H]5C[C@@H](Oc6ccc(-c7ccc8c(c7)[nH]c7ccncc78)cn6)C5)cn4)cc3C2=O)C(=O)N1 (some centres unmarked) [Compound 183, 5-((3-(5-((1s,3 s)-3-((5-(5H-pyrido[4,3-b]indol-7-yl)pyridin-2-yl)oxy)cyclobutoxy)pyridin-2-yl)prop-2-yn-1-yl)oxy)-2-(2,6-dioxopiperidin-3-yl)isoindoline-1,3-dione] |  | A (≤50% tau protein remaining after 72 hours of incubation with the test compound)
4 | O=C1CCC(N2C(=O)c3cnc(OCCOCCOCCOCCOCCOc4ccc(-c5ccc6c(c5)[nH]c5ccncc56)cn4)cc3C2=O)C(=O)N1 (centres unmarked) [Compound 87, 6-((14-((5-(5H-pyrido[4,3-b]indol-7-yl)pyridin-2-yl)oxy)-3,6,9,12-tetraoxatetradecyl)oxy)-2-(2,6-dioxopiperidin-3-yl)-1H-pyrrolo[3,4-c]pyridine-1,3 (2H)-dione] | C (>80% tau protein remaining after 72 hours of incubation with the test compound) | 
5 | Cn1c2ccncc2c2ccc(-c3ccc(C(F)(F)COCCCCCOCCCCCCOc4ccc5c(c4)C(=O)N(C4CCC(=O)NC4=O)C5=O)nc3)cc21 (centres unmarked) [Compound 93, 5-((6-((5-(2,2-difluoro-2-(5-(5-methyl-5H-pyrido[4,3-b]indol-7-yl)pyridin-2-yl)ethoxy)pentyl)oxy)hexyl)oxy)-2-(2,6-dioxopiperidin-3-yl)isoindoline-1,3-dione] | C (>80% tau protein remaining after 72 hours of incubation with the test compound) | 
6 | Cn1c2ccncc2c2ccc(-c3ccc(O[C@H]4C[C@H](Oc5ccc(C#CCOCCOc6ccc7c(c6)C(=O)N(C6CCC(=O)NC6=O)C7=O)nc5)C4)nc3)cc21 (some centres unmarked) [Compound 179, 2-(2,6-dioxopiperidin-3-yl)-5-(2-((3-(5-((1r,3r)-3-((5-(5-methyl-5H-pyrido[4,3-b]indol-7-yl)pyridin-2-yl)oxy)cyclobutoxy)pyridin-2-yl)prop-2-yn-1-yl)oxy)ethoxy)isoindoline-1,3-dione] |  | A (≤50% tau protein remaining after 72 hours of incubation with the test compound)
7 | O=C1CCC(N2C(=O)c3ccc(OCCOCCOCCOCCOCCOc4ccc(-c5ccc6c7cnccc7n(C(F)F)c6c5)cn4)cc3C2=O)C(=O)N1 (centres unmarked) [Compound 138, 5-((14-((5-(5-(difluoromethyl)-5H-pyrido[4,3-b]indol-7-yl)pyridin-2-yl)oxy)-3,6,9,12-tetraoxatetradecyl)oxy)-2-(2,6-dioxopiperidin-3-yl)isoindoline-1,3-dione] | B (≤80% and >50% tau protein remaining after 72 hours of incubation with the test compound) | 
8 | O=C1CCC(N2C(=O)c3ccc(N4CC(OCCCOCCCO[C@H]5C[C@H](Oc6ncc(-c7ccc8c(c7)[nH]c7ccncc78)cc6C(F)(F)F)C5)C4)cc3C2=O)C(=O)N1 (some centres unmarked) [Compound 148, 5-(3-(3-(3-((1r,3r)-3-((5-(5H-pyrido[4,3-b]indol-7-yl)-3-(trifluoromethyl)pyridin-2-yl)oxy)cyclobutoxy)propoxy)propoxy)azetidin-1-yl)-2-(2,6-dioxopiperidin-3-yl)isoindoline-1,3-dione] | B (≤80% and >50% tau protein remaining after 72 hours of incubation with the test compound) | 
9 | Cc1ncsc1-c1ccc([C@H](C)NC(=O)[C@@H]2C[C@@H](O)CN2C(=O)[C@@H](NC(=O)COCCOCCOCCOCCOCCOc2ccc(-c3ccc4c(c3)[nH]c3ccncc34)cn2)C(C)(C)C)cc1 [Compound 121, (2S,4R)-1-((S)-20-((5-(5H-pyrido[4,3-b]indol-7-yl)pyridin-2-yl)oxy)-2-(tert-butyl)-4-oxo-6,9,12,15,18-pentaoxa-3-azaicosanoyl)-4-hydroxy-N—((S)-1-(4-(4-methylthiazol-5-yl)phenyl)ethyl)pyrrolidine-2-carboxamide] | B (≤80% and >50% tau protein remaining after 72 hours of incubation with the test compound) | 
10 | O=C1CCC(N2C(=O)c3ccc(N4CCN(CCCc5ccc(O[C@H]6C[C@H](Oc7ccc(-c8ccc9c(c8)[nH]c8ccncc89)cn7)C6)cn5)CC4)cc3C2=O)C(=O)N1 (some centres unmarked) [Compound 64, 5-(4-(3-(5-((1r,3r)-3-((5-(5H-pyrido[4,3-b]indol-7-yl)pyridin-2-yl)oxy)cyclobutoxy)pyridin-2-yl)propyl)piperazin-1-yl)-2-(2,6-dioxopiperidin-3-yl)isoindoline-1,3-dione] | C (>80% tau protein remaining after 72 hours of incubation with the test compound) | 
11 | CN(CCCO[C@H]1C[C@H](Oc2ccc(-c3ccc4c5cnccc5n(C)c4c3)cn2)C1)C(=O)COCC1CN(c2ccc3c(c2)C(=O)N(C2CCC(=O)NC2=O)C3=O)C1 (some centres unmarked) [Compound 202, 2-((1-(2-(2,6-dioxopiperidin-3-yl)-1,3-dioxoisoindolin-5-yl)azetidin-3-yl)methoxy)-N-methyl-N-(3-((1r,3r)-3-((5-(5-methyl-5H-pyrido[4,3-b]indol-7-yl)pyridin-2-yl)oxy)cyclobutoxy)propyl)acetamide] |  | B (≤80% and >50% tau protein remaining after 72 hours of incubation with the test compound)
12 | Cn1c2ccncc2c2ccc(-c3ccc(O[C@H]4C[C@H](OCC#CCOCCOC5CN(c6ccc7c(c6)C(=O)N(C6CCC(=O)NC6=O)C7=O)C5)C4)nc3)cc21 (some centres unmarked) [Compound 212, 2-(2,6-dioxopiperidin-3-yl)-5-(3-(2-((4-((1r,3r)-3-((5-(5-methyl-5H-pyrido[4,3-b]indol-7-yl)pyridin-2-yl)oxy)cyclobutoxy)but-2-yn-1-yl)oxy)ethoxy)azetidin-1-yl)isoindoline-1,3-dione] |  | A (≤50% tau protein remaining after 72 hours of incubation with the test compound)
13 | Cn1c2ccncc2c2ccc(-c3ccc(O[C@H]4C[C@H](Oc5ccc(C#CCCCCOc6ccc7c(c6)C(=O)N(C6CCC(=O)NC6=O)C7=O)cc5)C4)nc3)cc21 (some centres unmarked) [Compound 124, 2-(2,6-dioxopiperidin-3-yl)-5-((6-(4-((1r,3r)-3-((5-(5-methyl-5H-pyrido[4,3-b]indol-7-yl)pyridin-2-yl)oxy)cyclobutoxy)phenyl)hex-5-yn-1-yl)oxy)isoindoline-1,3-dione] | C (>80% tau protein remaining after 72 hours of incubation with the test compound) | 

Same assay, conditions: SK-N-SH cells; 72 hours of incubation; tested at 1000 nM, 300 nM and 100 nM

Row | SMILES | Activity* (highest amount of degradation observed at any dosage, as tau protein remaining)
14 | Cc1ncsc1-c1ccc(CNC(=O)[C@@H]2C[C@@H](O)CN2C(=O)[C@@H](NC(=O)COCCOCCOCCOCCOc2ccc3nc(-c4ccc(N(C)C)cc4)ccc3c2)C(C)(C)C)cc1 [Compound 31] | C (>80% tau protein remaining after 72 hours of incubation with the test compound)
15 | O=C1CCC(N2Cc3c(NCCOCCOCCOCCOCCOc4ccc(-c5ccc6c(c5)[nH]c5ccncc56)cn4)cccc3C2=O)C(=O)N1 (centres unmarked) [Compound 49, 3-(4-((14-((5-(5H-pyrido[4,3-b]indol-7-yl)pyridin-2-yl)oxy)-3,6,9,12-tetraoxatetradecyl)amino)-1-oxoisoindolin-2-yl)piperidine-2,6-dione] | A (≤50% tau protein remaining after 72 hours of incubation with the test compound)
16 | Cc1ncsc1-c1ccc([C@H](C)NC(=O)[C@@H]2C[C@@H](O)CN2C(=O)[C@@H](NC(=O)COCCOCCOc2ccc3nc(-c4ccc(N(C)C)cc4)ccc3c2)C(C)(C)C)cc1 [Compound 28, (2S,4R)-1-((S)-2-(2-(2-(2-(2-(4-(dimethylamino)phenyl)quinolin-6-yloxy)ethoxy)ethoxy)acetamido)-3,3-dimethylbutanoyl)-4-hydroxy-N—((S)-1-(4-(4-methylthiazol-5-yl)phenyl)ethyl)pyrrolidine-2-carboxamide] | C (>80% tau protein remaining after 72 hours of incubation with the test compound)
17 | Cn1c2ccncc2c2ccc(-c3ccc(OCCOCCOCCOCCOCCNc4cccc5c4C(=O)N(C4CCC(=O)NC4=O)C5=O)nc3)cc21 (centres unmarked) [Compound 48, 2-(2,6-dioxopiperidin-3-yl)-4-(14-(5-(5-methyl-5H-pyrido[4,3-b]indol-7-yl)pyridin-2-yloxy)-3,6,9,12-tetraoxatetradecylamino)isoindoline-1,3-dione] | A (≤50% tau protein remaining after 72 hours of incubation with the test compound)
